Reference: publication PMC9146377, “Design and Synthesis of Novel Bis-Imidazolyl Phenyl Butadiyne Derivatives as HCV NS5A Inhibitors” (Pharmaceuticals, 2022)
pEC50: −log10 of the molar value. Read-outs that look alike come from different tables or passages of the source.

How the values were obtained:
[1] = system: HCV genotype 1b Con-1 subgenomic replicon; assay: Anti-HCV luciferase assay, genotype 1b (Con1) subgenomic replicon in Huh5-2 cells; format: cell-based, Hepatitis C virus; conditions: mean of three experiments
Experimental: All synthesized compounds were tested against HCV genotype 1b Con-1 subgenomic replicon in the Huh-5-2 stable cell line. Specifically, their activity against viral replication was estimated by measuring firefly luciferase, which is co-expressed by the bicistronic replicon, and their half-maximal effective concentrations (EC50) were determined. In parallel, the half-maximal cytotoxic concentrations (CC50) of the compounds were estimated, and their selective indexes (SI50: CC50/ EC50) were calculated. All novel synthesized compounds were active against HCV 1b with EC50 < 1 µM except for compound 4b (Table 3).
Huh5-2 [65] and Huh7-JFH1 [66] stable cell lines harbor the subgenomic HCV reporter replicon I389luc-ubi-neo/NS3-3′/Con1/5.1 (genotype 1b; strain Con1) and I389luc-ubi-neo/NS3-3′_dg_JFH1 (genotype 2a, JFH1 strain), respectively (kindly provided by R. Bartenschlager, Heidelberg University, Heidelberg, Germany). Huh7.5-3a and Huh7.5-4a stable cell lines harbor the subgenomic HCV reporter replicon S52-SG (Feo) (AII) (genotype 3a; S52 strain) and ED43-SG (Feo) (VYG) (genotype 4a; ED43 strain), respectively (viral constructs kindly provided by C.M. Rice, Rockefeller University, New York, NY, USA). These replicons carry as a first cistron firefly luciferase (F-Luc) and neomycin phosphotransferase genes under the translational control of the HCV internal ribosome entry site (IRES), followed by HCV NS3 to NS5B proteins under the control of the EMCV IRES.
The anti-HCV assay in replicon cells was performed by seeding 1 × 10^4 cells per well in a 96-well plate. After 24 h of incubation at 37 °C (5% CO2) and medium removal, serial dilutions of the test compounds in complete DMEM were added. Cells were lysed after 72 h, and F-Luc activity was measured. The anti-HCV assay for the full-length viral construct H77S.3/GLuc2A was performed after electroporation of Huh7-Lunet cells with viral RNA. Cells were seeded in 96-well plates, the medium was removed 24 h after electroporation, and serial dilutions of the compounds in complete DMEM were added. At 72 h post-treatment, cell supernatants were collected, and G-Luc activity was measured. In addition, the cells were lysed for total protein quantification.
Relative luminescence units (RLU) were expressed as a percentage of the respective units derived from DMSO-treated cells (control). The half-maximal effective concentration (EC50), defined as the concentration of compound that reduces luciferase signal by 50%, was calculated by dose-response curve analysis using Prism 5.0 software (GraphPad Software Inc., San Diego, CA, USA).
(§1) The F-Luc activity was measured using the Luciferase Assay System (Promega, Madison, WI, USA), as recommended by the manufacturer. The G-Luc activity was measured using 12 μM coelenterazine (Promega) in assay buffer (50 mM potassium phosphate, pH 7.4, 500 mM NaCl, 1 mM EDTA). Measurements were carried out using a GloMax 20/20 single tube luminometer (Promega) for 10 s. The F-Luc activity was normalized to the total protein amount determined using the Bradford assay reagent (Pierce, Waltham, MA, USA).

[2] = system: HCV genotype 1a (strain H77S.3) full-length reporter viral RNA; assay: microbe, parasite or virus in culture; format: cell-based, Hepatitis C virus
[3] = system: subgenomic replicon of HCV GT 3a (strain S52); assay: Anti-HCV luciferase assay, genotype 3a replicon in Huh7.5-3a cells; format: cell-based; conditions: Hepatitis C virus, GT3A, read-out: Gt3a EC50
Experimental: (§2) Specifically, we determined the activity of 10a against viral replication by measuring luciferase activity in Huh7-JFH1, Huh7.5-3a, and Huh7.5-4a stable cell lines containing subgenomic replicons of HCV GT 2a (strain JFH1), GT 3a (strain S52) and GT 4a (strain ED43), respectively. In addition, the activity of 10a was determined in Huh7-Lunet cells electroporated with the in vitro transcribed full-length reporter viral RNA of HCV genotype 1a (strain H77S.3). […]
(§3) The anti-HCV assay in replicon cells was performed by seeding 1 × 10^4 cells per well in a 96-well plate. […] Cells were lysed after 72 h, and F-Luc activity was measured. […] At 72 h post-treatment, cell supernatants were collected, and G-Luc activity was measured. In addition, the cells were lysed for total protein quantification.
(§4) Relative luminescence units (RLU) were expressed as a percentage of the respective units derived from DMSO-treated cells (control). […]
as §1, with “Measurements were carried out using a GloMax 20/20 single tube luminometer (Promega) for 10 s.” left out

[4] = system: subgenomic replicon of HCV GT 4a (strain ED43); assay: Anti-HCV luciferase assay, genotype 4a replicon in Huh7.5-4a cells; format: cell-based, Hepatitis C virus
Experimental: as §2, §3, §4
as §1, with “Measurements were carried out using a GloMax 20/20 single tube luminometer (Promega) for 10 s.” left out

[5] = Cytotoxicity assay (intracellular ATP levels), Table 4 Gt1a; format: cell-based; conditions: human, Huh7-Lunet cells, HCV 1a (H77) full length
Experimental: Intracellular ATP levels were measured to determine the cytotoxicity of the compounds in the treated cells. In 96-well plates, 10^4 cells per well were seeded, incubated with serial dilutions of the compounds or DMSO as a control for 72 h at 37 °C (5% CO2) and lysed for ATP measurement. ATP levels were measured using the ViaLight HS BioAssay kit (Lonza, Basel, Switzerland) in a GloMax 20/20 single-tube luminometer (Promega) for 1 s, according to the manufacturer’s protocol. Values were normalized to total protein amounts and used to determine the compound concentration causing 50% cell death (CC50). Nonlinear regression analysis was performed using Prism 5.0 software (GraphPad Software Inc., San Diego, CA, USA).

COC(=O)N[C@@H](C(=O)N1CCC[C@H]1c1ncc(-c2cccc(C#CC#Cc3cccc(-c4cnc([C@@H]5CCCN5C(=O)[C@H](NC(=O)OC)c5ccccc5)[nH]4)c3)c2)[nH]1)c1ccccc1 [Compound 10a, Dimethyl ((1R,1′R)-((2S,2′S)-((buta-1,3-diyne-1,4-diylbis(3,1-phenylene))bis(1H-imidazole-5,2-diyl))bis(pyrrolidine-2,1-diyl))bis(2-oxo-1-phenylethane-2,1-diyl))dicarbamate]
pEC50 ([1]; Hepatitis C virus, Huh-5-2, 72 h, read-out: HCV Replicon 1b EC50, Huh5-2 cells, Con1 strain, F-Luc, 72 h): 10.00 | pEC50 ([1]; Huh5-2 cells, Con1 strain, F-Luc, 72 h, read-out: HCV Replicon 1b EC50): 10.00 | Gt1a SI ([2]; HCV 1a (H77) full length): >2792.52 | pEC50 ([2]; Hepatitis C virus, Huh-7, 72 h, read-out: Gt1a EC50): 7.45 | pEC50 [3]: 6.89 | Gt4a SI ([4]; ED43 replicon): >1537.52 | pEC50 ([4]; Hepatitis C virus, GT4A, read-out: Gt4a EC50): 7.19 | CC50 at 72 h [5]: > 100000 nM | melting point: 126 to 128 °C
